In the NIST ThermoML archive (doi:10.1021/je500498m):
Numbers after ± are expanded uncertainties.

Assay: xn = mol fraction of the nth substance listed
Conditions: for speed of sound: 100 kPa, Sing-around technique in a fixed-path interferometer; for speed of sound / viscosity / mass density: Liquid; for viscosity / mass density: 101 kPa; for viscosity: Falling or rolling sphere viscometry; for mass density: Vibrating tube method; for surface tension liquid-gas: 294.4 K, Pendant drop shape

CCCCCCCCCCCCCCCC [hexadecane] + Cc1ccccc1
Conditions | mass density [kg/m3] | speed of sound [m/s] | viscosity [mPa·s]
293.15 K, x2 = 0 | 773.49 ± 0.33 | 1357.3 ± 0.9 | 3.44 ± 0.03
293.15 K, x2 = 0.1002 | 776.71 ± 0.33 | 1352.9 ± 0.9 | 3.03 ± 0.03
293.15 K, x2 = 0.2 | 780.38 ± 0.33 | 1348.1 ± 0.9 | 2.64 ± 0.02
293.15 K, x2 = 0.3018 | 784.83 ± 0.33 | 1343.1 ± 0.9 | 2.28 ± 0.02
293.15 K, x2 = 0.4001 | 789.87 ± 0.33 | 1337.2 ± 0.8 | 1.96 ± 0.02
293.15 K, x2 = 0.5 | 796.1 ± 0.33 | 1332 ± 0.8 | 1.66 ± 0.02
293.15 K, x2 = 0.6001 | 803.76 ± 0.32 | 1326.5 ± 0.8 | 1.4 ± 0.02
293.15 K, x2 = 0.7005 | 813.44 ± 0.32 | 1321.5 ± 0.8 | 1.16 ± 0.01
293.15 K, x2 = 0.8001 | 825.95 ± 0.32 | 1318 ± 0.8 | 0.94 ± 0.01
293.15 K, x2 = 0.8999 | 842.77 ± 0.32 | 1318 ± 0.8 | 0.76 ± 0.01
303.15 K, x2 = 0 | 766.55 ± 0.34 | 1320 ± 0.9 | 2.72 ± 0.02
303.15 K, x2 = 0.1002 | 769.7 ± 0.33 | 1315.5 ± 0.9 | 2.42 ± 0.02
303.15 K, x2 = 0.2 | 773.29 ± 0.33 | 1310.6 ± 0.9 | 2.14 ± 0.02
303.15 K, x2 = 0.3018 | 777.64 ± 0.33 | 1305.5 ± 0.8 | 1.87 ± 0.02
303.15 K, x2 = 0.4001 | 782.56 ± 0.33 | 1299.4 ± 0.8 | 1.63 ± 0.02
303.15 K, x2 = 0.5 | 788.63 ± 0.33 | 1293.9 ± 0.8 | 1.4 ± 0.02
303.15 K, x2 = 0.6001 | 796.11 ± 0.33 | 1288 ± 0.8 | 1.19 ± 0.01
303.15 K, x2 = 0.7005 | 805.54 ± 0.32 | 1282.4 ± 0.8 | 1 ± 0.01
303.15 K, x2 = 0.8001 | 817.73 ± 0.32 | 1278.2 ± 0.8 | 0.82 ± 0.01
303.15 K, x2 = 0.8999 | 834.11 ± 0.32 | 1277 ± 0.7 | 0.67 ± 0.01
313.15 K, x2 = 0 | 759.63 ± 0.34 | 1283.3 ± 0.9 | –
313.15 K, x2 = 0.1002 | 762.7 ± 0.33 | 1278.7 ± 0.9 | –
313.15 K, x2 = 0.2 | 766.2 ± 0.33 | 1273.6 ± 0.9 | –
313.15 K, x2 = 0.3018 | 770.44 ± 0.33 | 1268.4 ± 0.8 | –
313.15 K, x2 = 0.4001 | 775.24 ± 0.33 | 1262.1 ± 0.8 | –
313.15 K, x2 = 0.5 | 781.15 ± 0.33 | 1256.2 ± 0.8 | –
313.15 K, x2 = 0.6001 | 788.42 ± 0.33 | 1250 ± 0.8 | –
313.15 K, x2 = 0.7005 | 797.59 ± 0.32 | 1243.8 ± 0.8 | –
313.15 K, x2 = 0.8001 | 809.46 ± 0.32 | 1238.8 ± 0.8 | –
313.15 K, x2 = 0.8999 | 825.38 ± 0.32 | 1236.4 ± 0.7 | –
323.15 K, x2 = 0 | 752.71 ± 0.34 | 1247.3 ± 0.9 | 1.82 ± 0.02
323.15 K, x2 = 0.1002 | 755.7 ± 0.34 | 1242.6 ± 0.9 | 1.65 ± 0.02
323.15 K, x2 = 0.2 | 759.11 ± 0.33 | 1237.4 ± 0.9 | 1.49 ± 0.02
323.15 K, x2 = 0.3018 | 763.23 ± 0.33 | 1231.9 ± 0.8 | 1.33 ± 0.02
323.15 K, x2 = 0.4001 | 767.89 ± 0.33 | 1225.4 ± 0.8 | 1.18 ± 0.01
323.15 K, x2 = 0.5 | 773.64 ± 0.33 | 1219.2 ± 0.8 | 1.04 ± 0.01
323.15 K, x2 = 0.6001 | 780.71 ± 0.33 | 1212.5 ± 0.8 | 0.9 ± 0.01
323.15 K, x2 = 0.7005 | 789.6 ± 0.33 | 1205.7 ± 0.8 | 0.77 ± 0.01
323.15 K, x2 = 0.8001 | 801.12 ± 0.32 | 1199.9 ± 0.7 | 0.64 ± 0.01
323.15 K, x2 = 0.8999 | 816.6 ± 0.32 | 1196.3 ± 0.7 | 0.52 ± 0.01
333.15 K, x2 = 0 | 745.79 ± 0.34 | 1212 ± 0.9 | 1.54 ± 0.02
333.15 K, x2 = 0.1002 | 748.7 ± 0.34 | 1207.1 ± 0.9 | 1.4 ± 0.02
333.15 K, x2 = 0.2 | 752 ± 0.33 | 1201.7 ± 0.8 | 1.27 ± 0.01
333.15 K, x2 = 0.3018 | 756 ± 0.33 | 1196 ± 0.8 | 1.15 ± 0.01
333.15 K, x2 = 0.4001 | 760.53 ± 0.33 | 1189.2 ± 0.8 | 1.03 ± 0.01
333.15 K, x2 = 0.5 | 766.1 ± 0.33 | 1182.7 ± 0.8 | 0.9 ± 0.01
333.15 K, x2 = 0.6001 | 772.93 ± 0.33 | 1175.6 ± 0.8 | 0.79 ± 0.01
333.15 K, x2 = 0.7005 | 781.29 ± 0.33 | 1168.2 ± 0.7 | 0.67 ± 0.01
333.15 K, x2 = 0.8001 | 792.74 ± 0.32 | 1161.7 ± 0.7 | 0.56 ± 0.01
333.15 K, x2 = 0.8999 | 807.75 ± 0.32 | 1156.7 ± 0.7 | 0.47 ± 0.01
343.15 K, x2 = 0 | 738.9 ± 0.3 | – | 1.31 ± 0.02
343.15 K, x2 = 0.1002 | 741.7 ± 0.3 | – | 1.21 ± 0.01
343.15 K, x2 = 0.2 | 744.9 ± 0.3 | – | 1.1 ± 0.01
343.15 K, x2 = 0.3018 | 748.9 ± 0.3 | – | 1 ± 0.01
343.15 K, x2 = 0.4001 | 753.2 ± 0.3 | – | 0.89 ± 0.01
343.15 K, x2 = 0.5 | 758.6 ± 0.3 | – | 0.8 ± 0.01
343.15 K, x2 = 0.6001 | 765.2 ± 0.3 | – | 0.69 ± 0.01
343.15 K, x2 = 0.7005 | 773.6 ± 0.3 | – | 0.6 ± 0.01
343.15 K, x2 = 0.8001 | 784.3 ± 0.3 | – | 0.51 ± 0.01
343.15 K, x2 = 0.8999 | 798.8 ± 0.3 | – | 0.43 ± 0.01
353.15 K, x2 = 0 | 731.8 ± 0.3 | – | 1.13 ± 0.01
353.15 K, x2 = 0.1002 | 734.5 ± 0.3 | – | 1.05 ± 0.01
353.15 K, x2 = 0.2 | 737.7 ± 0.3 | – | 0.96 ± 0.01
353.15 K, x2 = 0.3018 | 741.4 ± 0.3 | – | 0.87 ± 0.01
353.15 K, x2 = 0.4001 | 745.7 ± 0.3 | – | 0.79 ± 0.01
353.15 K, x2 = 0.5 | 750.9 ± 0.3 | – | 0.7 ± 0.01
353.15 K, x2 = 0.6001 | 757.2 ± 0.3 | – | 0.61 ± 0.01
353.15 K, x2 = 0.7005 | 765.3 ± 0.3 | – | 0.54 ± 0.01
353.15 K, x2 = 0.8001 | 775.7 ± 0.3 | – | 0.46 ± 0.01
353.15 K, x2 = 0.8999 | 789.7 ± 0.3 | – | 0.39 ± 0.01
363.15 K, x2 = 0 | 724.7 ± 0.3 | – | 0.99 ± 0.01
363.15 K, x2 = 0.1002 | 727.3 ± 0.3 | – | 0.92 ± 0.01
363.15 K, x2 = 0.2 | 730.4 ± 0.3 | – | 0.85 ± 0.01
363.15 K, x2 = 0.3018 | 733.9 ± 0.3 | – | 0.77 ± 0.01
363.15 K, x2 = 0.4001 | 738 ± 0.3 | – | 0.7 ± 0.01
363.15 K, x2 = 0.5 | 743.1 ± 0.3 | – | 0.62 ± 0.01
363.15 K, x2 = 0.6001 | 749.2 ± 0.3 | – | 0.55 ± 0.02
363.15 K, x2 = 0.7005 | 756.9 ± 0.3 | – | 0.48 ± 0.01
363.15 K, x2 = 0.8001 | 767 ± 0.3 | – | 0.4 ± 0.07
363.15 K, x2 = 0.8999 | 780.4 ± 0.3 | – | 0.33 ± 0.01
373.15 K, x2 = 0 | 717.5 ± 0.3 | – | 0.87 ± 0.01
373.15 K, x2 = 0.1002 | 720 ± 0.3 | – | 0.81 ± 0.01
373.15 K, x2 = 0.2 | 722.9 ± 0.3 | – | 0.76 ± 0.01
373.15 K, x2 = 0.3018 | 726.3 ± 0.3 | – | 0.69 ± 0.01
373.15 K, x2 = 0.4001 | 730.3 ± 0.3 | – | 0.64 ± 0.01
373.15 K, x2 = 0.5 | 735.1 ± 0.3 | – | 0.56 ± 0.01
373.15 K, x2 = 0.6001 | 741 ± 0.3 | – | –
373.15 K, x2 = 0.7005 | 748.5 ± 0.3 | – | –
373.15 K, x2 = 0.8001 | 758 ± 0.3 | – | –

Conditions | surface tension liquid-gas [mN/m]
x2 = 0 | 27.3 ± 0.4
x2 = 0.4001 | 27.3 ± 0.4
x2 = 0.5 | 27.5 ± 0.4
x2 = 0.6001 | 27.6 ± 0.4
x2 = 0.7006 | 27.7 ± 0.4
x2 = 0.8001 | 27.8 ± 0.4
x2 = 0.8999 | 28 ± 0.4
